Patent US7355055B2, “Compounds for treatment of lipase-mediated diseases” (Reliance Life Sciences Pvt. Ltd., priority 2005, dated 2008)
Structures can show the parent of a compound that is named as a salt.

What was measured:
Pancreatic Lipase = molecular target: T1, Pancreatic Lipase (Sus scrofa, UniProt P00591); experiment: Pancreatic lipase inhibition assay (p-nitro phenol palmitate substrate, 96-well); assay type: biochemical; conditions: for IC50: dose range 6.25 μM-200 μM, interpolated by linear regression; for inhibition at 100 µM / inhibition at 200 µM: pancreatic lipase, 37° C., OD 405 nm; for inhibition at 100 µM: compound 100 μM; for inhibition at 200 µM: compound 200 μM
T1 construct: purchased Sigma L-3126
T1 sequence (P00591 1-450): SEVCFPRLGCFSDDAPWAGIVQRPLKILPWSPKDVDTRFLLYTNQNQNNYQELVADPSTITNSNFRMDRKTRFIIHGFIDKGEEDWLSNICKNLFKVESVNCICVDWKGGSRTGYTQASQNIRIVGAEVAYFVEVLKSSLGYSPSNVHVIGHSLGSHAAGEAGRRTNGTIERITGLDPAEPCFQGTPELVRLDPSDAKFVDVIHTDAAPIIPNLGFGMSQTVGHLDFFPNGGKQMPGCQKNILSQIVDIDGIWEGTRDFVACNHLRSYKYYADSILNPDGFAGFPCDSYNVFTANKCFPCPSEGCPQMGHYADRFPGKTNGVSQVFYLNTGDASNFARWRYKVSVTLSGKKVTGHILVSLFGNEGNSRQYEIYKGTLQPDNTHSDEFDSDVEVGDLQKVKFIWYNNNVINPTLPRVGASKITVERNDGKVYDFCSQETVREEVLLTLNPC
Method: (§1) Preparation of test samples: Structures #2-#19 were dissolved in 1 mL DMSO to obtain a 10 mM stock solution, and were vortexed to dissolution and stored at 4° C. The various concentration of working samples were prepared in 0.2 M phosphate buffer, pH-8.0. This sample was used as test sample for all further assays.
Lipase assay: Lipase assay was performed by method described by Winkler and Stuckmann, 1979, with modification. (Winkler, U. K. & Stuckmann, M. Glycogen, hyaluronate, and some other polysaccharides greatly enhance the formation of exolipase by Serratia marcescens. J. Bacteriol. 138: 663-670 (1979)) Assay was designed, using a 96-well format. The substrate used in this assay was p-nitro phenol palmitate (Sigma, Cat No-N-2752). 4.5 mg of p-nitro phenol palmitate was dissolved in 200 μl of N,N-dimethyl formamide (Sigma, Cat No, D-4551) and volume made up to 10 ml with 0.1 M pH 8.0 phosphate buffer. Pancreatic Lipase (Sigma, Cat No. L-3126) sample was prepared by dissolving the enzyme in 0.1M phosphate buffer at a concentration of 5 mg/ml. The reaction mixture consisted of 150 μl substrate solution; 40 μl phosphate buffer (pH 8.0, 0.2 M) and 10 μl lipase solution. The reaction mixture was incubated at 37° C. and optical density was measured at 405 nm after incubation. Enzyme activity was presented in the form of international unit (IU).
Lipase activity: One enzyme unit of lipase is defined as that quantity releasing 1 nm of free phenol from the substrate (p-nitro phenol palmitate) per min per ml under the standard assay condition (Winkler and Stuckmann, 1979; Yadav R P, Saxena R K, Gupta R. Davidson W S., Purification and characterization of a region-specific lipase from Aspergillus terreus. Biotechnol. Appl. Biochem. (1998) 28, (243-249)). It is derived from standard graph of p-nitro phenol (Sigma, 104-8).
(§2) Lipase inhibition assay: Enzyme inhibition assay was performed in a dose dependent manner. The concentration of the synthetic analogs checked were 100 μM & 200 μM. The assay was similar to assay described above except 40 μl of test sample was used instead of phosphate buffer in control. Optical density was measured at 0 hr and following incubation at 37° C.
Enzyme Inhibition: Enzyme inhibition was presented in the term of relative activity and percentage inhibition simply on the basis of change in international unit (IU).
as §1, with “Synthetic analogues” for “Structures #2-#19”, “ml” for “mL”, “solution. The samples” for “solution, and”, “O.2” for “0.2”
as §2, with “6.25 μM-200” for “100 μM & 200”, “C. The enzyme activity was measured in terms of international unit (IU).” for “C.”
Lipase activity: One enzyme unit of lipase is defined as that quantity releasing 1 nm of free phenol from the substrate (p-nitro phenol palmitate)/min per ml under standard assay conditions. It is derived from standard graph of p-nitro phenol (Sigma, 104-8)
Percent Inhibition: Enzyme inhibition was presented in the term of % inhibition simply on the basis of change in international unit (IU).
The value of IC50 was derived from linear regression. The value derived is based on interpolated data.

| SMILES | melting point [°C] | IC50 (Pancreatic Lipase) [µM] | inhibition at 100 µM (Pancreatic Lipase) [%] | inhibition at 200 µM (Pancreatic Lipase) [%] |
| --- | --- | --- | --- | --- |
| CCCCCCCCCCCC1=C(OC(=O)c2cccc([N+](=O)[O-])c2)C(=O)C=C(OC(=O)c2cccc([N+](=O)[O-])c2)C1=O [Structure #11, 2,5-bis-(3-nitrophenylcarbonyloxy)-3-undecyl-1,4-benzoquinone] | 112.6 to 114.4 | 27 | 97.4 | 98 |
| CCCCCCCCCCCC1=C(OC(=O)c2ccccc2F)C(=O)C=C(OC(=O)c2ccccc2F)C1=O [Structure #4, 2,5-bis-(2-fluorophenylcarbonyloxy)-3-undecyl-1,4-benzoquinone] | 66.2 to 68 | 7.78 | 99.6 | 100 |
| CCCCCCCCCCCC1=C(OC(=O)c2ccccc2[N+](=O)[O-])C(=O)C=C(OC(=O)c2ccccc2[N+](=O)[O-])C1=O (as salt: Na) [Structure #14, 2,5-bis-(2-nitrophenylcarbonyloxy)-3-undecyl-1,4-benzoquinone] | 72.2 to 73.8 |  |  |  |
| CCCCCCCCCCCC1=C(OC(=O)c2cccc(F)c2)C(=O)C=C(OC(=O)c2cccc(F)c2)C1=O [Structure #2, 2,5-bis-(3-fluorophenylcarbonyloxy)-3-undecyl-1,4-benzoquinone] | 73.2 to 75.6 | < 6.25 | 99.2 | 97.9 |

Continued, values first:

| melting point [°C] | IC50 (Pancreatic Lipase) [µM] | inhibition at 100 µM (Pancreatic Lipase) [%] | inhibition at 200 µM (Pancreatic Lipase) [%] | SMILES |
| --- | --- | --- | --- | --- |
| 56.2 to 57.8 |  |  |  | CCCCCCCCCCCC1=C(OC(=O)c2ccccc2Cl)C(=O)C=C(OC(=O)c2ccccc2Cl)C1=O (as salt: Na) [Structure #8, 2,5-bis-(2-chlorophenylcarbonyloxy)-3-undecyl-1,4-benzoquinone] |
| 64.2 to 67.6 |  |  |  | CCCCCCCCCCCC1=C(OC(=O)c2ccccc2I)C(=O)C=C(OC(=O)c2ccccc2I)C1=O (as salt: Na) [Structure #19, 2,5-bis-(2-iodophenylcarbonyloxy)-3-undecyl-1,4-benzoquinone] |
